Results: paper PMC6152123, “Sites for Dynamic Protein-Carbohydrate Interactions of O- and C-Linked Mannosides on the E. coli FimH Adhesin” (Molecules : A Journal of Synthetic Chemistry and Natural …, 2017)
Several values for one entry are separate records, joined by “and”; a condition that tells them apart may be missing. Identical values can stand only once. Like-named read-outs stand apart in the source and are kept apart here.

Assays:
[1] = molecular target: T1, FimH lectin domain (Escherichia coli, UniProt P08191); assay: biochemical; assay type: binding, E. coli strain J96
T1 sequence (P08191 22-179 limits assumed): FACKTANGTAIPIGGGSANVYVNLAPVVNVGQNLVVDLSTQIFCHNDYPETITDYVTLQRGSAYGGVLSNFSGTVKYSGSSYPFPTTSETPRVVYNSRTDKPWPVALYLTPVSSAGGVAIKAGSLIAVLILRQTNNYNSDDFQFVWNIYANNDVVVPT

[2] = molecular target: T1, FimH lectin domain
[3] = molecular target: T1, FimH lectin domain; assay: SPR direct binding of FimH to receptor immobilized on sensor chip (steady state affinity); design: species or system E. coli strain J96; conditions: Ss: steady state affinity (Kd), direct binding of FimH to 5b coupled to CM5 sensor chip
Protocol: The equilibrium dissociation constant Kd of FimH for the mannose derivatives was determined using a competition assay in solution. In this assay, the mannose derivatives compete with an immobilized Fab fragment from the monoclonal anti-FimH antibody 1C10 or with an immobilized 8-aminooctyl α-D-mannopyranoside (5b) for FimH binding, as described earlier [34]. The global kinetic constants ka, kd and Rmax of the FimH-ligand interaction of binding were fitted using the BiaEval software.

[4] = molecular target: FimH; conditions: read-out: Kd ITC (converted), cited from earlier work
[5] = Kd (nM), Table 5, SPR, C-linked mannopyranosides
[6] = Kd SPR (nM), solution affinity by SPR competition, Tables 1-3
[7] = Kd (nM), Table 4, SPR detection, sulfonamide and amide spacers
[8] = read-out: Kd SPR; solution affinity by SPR; cited from earlier work
[9] = Figure S19, fit of solution affinity model to inhibition curve
[10] = KD(M), Figure S19, fit of solution affinity model to inhibition curve

C=CC[C@H]1O[C@H](CO)[C@@H](O)[C@H](O)[C@@H]1O [Compound 78]
Kd [1, 5]: 118 ± 20 nM

OC[C@H]1O[C@H](OC/C=C/c2ccccc2)[C@@H](O)[C@@H](O)[C@@H]1O [Compound 22]
Kd [1, 6]: 53 ± 7.5 nM

Cc1ccc(S(=O)(=O)NCCO[C@H]2O[C@H](CO)[C@@H](O)[C@H](O)[C@@H]2O)cc1 [Compound 72]
Kd [1, 7]: 168 ± 64 nM

CCCCCCO[C@H]1O[C@H](CO)[C@@H](O)[C@H](O)[C@@H]1O [hexyl]
Kd ([2]; solution affinity by SPR; read-out: Kd SPR; cited from earlier work): 10 nM

NCCCCCCCCO[C@H]1O[C@H](CO)[C@@H](O)[C@H](O)[C@@H]1O [Compound 5b, 8-aminooctyl α-D-mannopyranoside]
Kd [3]: 16.9 nM and 17 nM
Kd [1, 6]: 18 ± 0.4 nM

CC(C)SCCC[C@H]1O[C@H](CO)[C@@H](O)[C@H](O)[C@@H]1O [Compound 110]
Kd [1, 6]: 32 ± 4.1 nM

COc1ccc(C#CCO[C@H]2O[C@H](CO)[C@@H](O)[C@H](O)[C@@H]2O)cc1 [Compound 56]
Kd [1, 6]: 53 ± 2.3 nM

OC[C@H]1O[C@H](OCC#Cc2cccnc2)[C@@H](O)[C@@H](O)[C@@H]1O [Compound 55]
Kd [1, 6]: 83 ± 5.6 nM

CCCCCCCCO[C@H]1O[C@H](CO)[C@@H](O)[C@H](O)[C@@H]1O [Compound 5a, octyl α-D-mannopyranoside, reference compound]
Kd [2, 8]: 21 ± 0.2 nM
KA [1, 9]: 46550590.5 M⁻¹
Kd [1, 10]: 21.5 nM

OC[C@H]1O[C@H](OCCCSCc2ccccc2)[C@@H](O)[C@@H](O)[C@@H]1O [Compound 35]
Kd [1, 6]: 16 ± 2.4 nM

OC[C@H]1O[C@H](OCC#Cc2cccc3ccccc23)[C@@H](O)[C@@H](O)[C@@H]1O [Compound 53]
Kd [1, 6]: 120 ± 18 nM

CCCCCCCO[C@H]1O[C@H](CO)[C@@H](O)[C@H](O)[C@@H]1O [Compound 5, heptyl α-D-mannopyranoside, reference compound]
Kd [2, 8]: 4.3 ± 0.3 nM
Kd ([4]; Tables 1-3): 7.3 nM
KA [1, 9]: 231691100 M⁻¹
Kd [1, 10]: 4.32 nM

CCCCSCCCO[C@H]1O[C@H](CO)[C@@H](O)[C@H](O)[C@@H]1O [Compound 36]
Kd [1, 6]: 22 ± 2.7 nM

OC[C@H]1O[C@H](C/C=C/c2ccccc2)[C@@H](O)[C@@H](O)[C@@H]1O [Compound 115]
Kd [1, 5]: 182 ± 25 nM
fold more active than amide-linked analog 91 ([1]; SPR Kd): 2 fold

O=S(=O)(NCCO[C@H]1O[C@H](CO)[C@@H](O)[C@H](O)[C@@H]1O)c1ccccc1 [Compound 70]
Kd [1, 7]: 146 ± 26 nM

OC[C@H]1O[C@H](CCCc2cccc3ccccc23)[C@@H](O)[C@@H](O)[C@@H]1O [Compound 122]
Kd (nM) ([1]; Table 5, SPR, C-linked mannopyranosides): nf
Kd SPR (nM) ([1]; Table S2): nf

O=C(C[C@H]1O[C@H](CO)[C@@H](O)[C@H](O)[C@@H]1O)NCCCc1ccccc1 [Compound 93]
Kd [1, 7]: 105 ± 44 nM
fold rise of FimH inhibitory capacity versus 91 and 92 ([1]; SPR Kd): 4 fold

O=S(=O)(NCCO[C@H]1O[C@H](CO)[C@@H](O)[C@H](O)[C@@H]1O)c1cccc2ccccc12 [Compound 75]
Kd [1, 7]: 148 ± 18 nM

CCCSCCC[C@H]1O[C@H](CO)[C@@H](O)[C@H](O)[C@@H]1O [Compound 108]
Kd [1, 6]: 36 ± 9 nM

OC[C@H]1O[C@H](C/C=C/c2ccc(-c3ccccc3)cc2)[C@@H](O)[C@@H](O)[C@@H]1O [Compound 116]
Kd ([4]; Table S2): 58 ± 14 nM
Kd [1, 5]: 17 ± 3.5 nM
fold by which inhibition potential exceeds parent 115 ([1]; SPR Kd, Table 5): ~4 fold

O=[N+]([O-])c1ccc(C#CCO[C@H]2O[C@H](CO)[C@@H](O)[C@H](O)[C@@H]2O)cc1 [Compound 57]
Kd [1, 6]: 816 ± 105 nM

CC(C)c1cc(C(C)C)c(S(=O)(=O)NCCO[C@H]2O[C@H](CO)[C@@H](O)[C@H](O)[C@@H]2O)c(C(C)C)c1 [Compound 74]
Kd [1, 7]: 37 ± 5 nM

OC[C@H]1O[C@H](CCCSCc2ccccc2)[C@@H](O)[C@@H](O)[C@@H]1O [Compound 106]
Kd [1, 6]: 25 ± 6.3 nM

CCSCCC[C@H]1O[C@H](CO)[C@@H](O)[C@H](O)[C@@H]1O [Compound 109]
Kd [1, 6]: 78 ± 5.6 nM

CCCSCCCO[C@H]1O[C@H](CO)[C@@H](O)[C@H](O)[C@@H]1O [Compound 37]
Kd [1, 6]: 14 ± 5 nM

OC[C@H]1O[C@H](OCCCc2ccccc2)[C@@H](O)[C@@H](O)[C@@H]1O [Compound 26]
Kd [1, 6]: 59 ± 8.5 nM

OC[C@H]1O[C@H](OCCCc2ccccc2-c2ccccc2)[C@@H](O)[C@@H](O)[C@@H]1O [Compound 28]
Kd [1, 6]: 13 ± 1.7 nM

CC(C)SCCCO[C@H]1O[C@H](CO)[C@@H](O)[C@H](O)[C@@H]1O [Compound 39]
Kd [1, 6]: 11 ± 6.1 nM
